The values that follow come from US11981658B2, “Substituted aminopyridine compounds as EGFR inhibitors” (YUHAN CORPORATION, priority 2021, dated 2024).

Read-outs that look alike come from different tables or passages of the source.

The target in one assay is EGFR Del19/T790M/C797S (Homo sapiens, UniProt P00533, C797S/DEL746-750/T790M). As to the kind of experiment: Biochemical EGFR kinase inhibition assay (Lance Ultra TR-FRET), triple mutant del19/T790M/C797S. The procedure, abridged: (§1)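 Step 1: compound in kinase buffer, 0.003–10 μM. Step 2: kinase reaction 1 h at room temperature. Step 4: TR-FRET read at 615/665 nm; IC50 calculated.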
(In general: Time-resolved FRET reads energy transfer from a long-lived donor to a nearby acceptor.)

For a further assay, the target named is EGFR L858R/C797S (Homo sapiens, UniProt P00533, C797S/L858R). As to the kind of experiment: Biochemical EGFR kinase inhibition assay (Lance Ultra TR-FRET), double mutant L858R/C797S. The gist of the method: as §1
The target in the next assay is EGFR wildtype (WT) (Homo sapiens, UniProt P00533). Briefly: Biochemical EGFR kinase inhibition assay (Lance Ultra TR-FRET), wildtype. The gist of the method:
as §1

In another assay the target is EGFR L858R/T790M/C797S (Homo sapiens, UniProt P00533, C797S/L858R/T790M). As to the kind of experiment: Biochemical EGFR kinase inhibition assay (Lance Ultra TR-FRET), triple mutant L858R/T790M/C797S. The procedure, abridged:
as §1

In the next assay the target is EGFR Del19/C797S (Homo sapiens, UniProt P00533, C797S/DEL746-750). As to the kind of experiment: Biochemical EGFR kinase inhibition assay (Lance Ultra TR-FRET), double mutant del19/C797S. The procedure, abridged:
as §1

The mark [1] stands for this setting: IC50 Del19/T790M/C797S (nM), 100 μM ATP.
Where [2] appears, read: IC50 L858R/C797S (nM), 100 μM ATP.
The mark [3] stands for this setting: Km ATP, read-out: IC50 L858R/C797S (nM), Km ATP.
Setting [4] is: Km ATP, read-out: IC50 WT (nM), Km ATP.
[5] abbreviates: IC50 L858R/T790M/C797S (nM), 100 μM ATP.
Setting [6] is: IC50 Del19/C797S (nM), 100 μM ATP.
Setting [7] is: Km ATP, read-out: IC50 Del19/C797S (nM), Km ATP.

Take `CC1(O)CCN(c2cc(Nc3ccnc(-c4cnn(S(=O)(=O)C5CC5)c4)n3)ncc2C#CC2(C)CC2)CC1` [Example 404, 1-(2-((2-(1-(Cyclopropylsulfonyl)-1H-pyrazol-4-yl)pyrimidin-4-yl)amino)-5-((1-methylcyclopropyl)ethynyl)pyridin-4-yl)-4-methylpiperidin-4-ol]: the IC50 stood at 1.7 nM against EGFR Del19/T790M/C797S (setting [1]); 55.6 nM on EGFR L858R/C797S (setting [2]); 2.7 nM on EGFR L858R/C797S (setting [3]); 9350 nM on EGFR wildtype (WT) (IC50 WT (nM), 100 μM ATP); 45.8 nM at EGFR wildtype (WT) (setting [4]); 2.9 nM against EGFR L858R/T790M/C797S (setting [5]). The IC50 worked out at 3.6 nM against EGFR Del19/C797S (setting [6]) and 5.3 nM at EGFR Del19/C797S (setting [7]).

On to `O=S(=O)(C1CC1)n1cc(-c2nccc(Nc3cc(NCC4CCC(O)CC4)c(C#CC4CCCO4)cn3)n2)cn1` (stereo not shown) [Example 375, (1 r,4r)-4-(((2-((2-(1-(Cyclopropylsulfonyl)-1H-pyrazol-4-yl)pyrimidin-4-yl)amino)-5-((tetrahydrofuran-2-yl)ethynyl)pyridin-4-yl)amino)methyl)cyclohexan-1-ol], for which the IC50 at EGFR Del19/T790M/C797S (setting [1]) is 3.2 nM; at EGFR Del19/T790M/C797S (Km ATP, read-out: IC50 Del19/T790M/C797S (nM), Km ATP) it was 2.5 nM; against EGFR L858R/C797S (setting [2]) it was 1920 nM; at EGFR L858R/C797S (setting [3]), 82 nM; on EGFR wildtype (WT) (IC50 WT (nM), 100 μM ATP) it was above 10000 nM; on EGFR wildtype (WT) (setting [4]), 122 nM. Besides, the IC50 at EGFR L858R/T790M/C797S (setting [5]) came out at 8 nM; at EGFR L858R/T790M/C797S (Km ATP, read-out: IC50 L858R/T790M/C797S (nM), Km ATP), 1.3 nM; at EGFR Del19/C797S (setting [6]) it was 34.8 nM; on EGFR Del19/C797S (setting [7]), 13.1 nM.

With `Cn1cc(C#Cc2cnc(Nc3ccnc(-c4cnn(S(=O)(=O)C5CC5)c4)n3)cc2N2CCC(NCCC(F)(F)F)CC2)cn1` [Example 127, 2-(1-(Cyclopropylsulfonyl)-1H-pyrazol-4-yl)-N-(5-((1-methyl-1H-pyrazol-4-yl)ethynyl)-4-(4-((3,3,3-trifluoropropyl)amino)piperidin-1-yl)pyridin-2-yl)pyrimidin-4-amine], the IC50 on EGFR Del19/T790M/C797S (setting [1]) is 2.8 nM; against EGFR L858R/C797S (setting [2]), 45.7 nM; on EGFR wildtype (WT) (IC50 WT (nM), 100 μM ATP) it was above 10000 nM; against EGFR L858R/T790M/C797S (setting [5]), 1.8 nM; on EGFR Del19/C797S (setting [6]), 6.9 nM.

Take `Cn1cc(C#Cc2cnc(Nc3ccnc(-c4cnn(S(=O)(=O)C5CC5)c4)n3)cc2N2CCC(O)C(F)(F)C2)cn1` (stereo not shown) [Example 68, 1-(2-((2-(1-(Cyclopropylsulfonyl)-1H-pyrazol-4-yl)pyrimidin-4-yl)amino)-5-((1-methyl-1H-pyrazol-4-yl)ethynyl)pyridin-4-yl)-3,3-difluoropiperidin-4-ol]: the IC50 on EGFR Del19/T790M/C797S (setting [1]) was 1.3 nM; against EGFR L858R/C797S (setting [2]) it was 130 nM; against EGFR wildtype (WT) (IC50 WT (nM), 100 μM ATP), above 10000 nM; against EGFR L858R/T790M/C797S (setting [5]) it was 8.9 nM; on EGFR Del19/C797S (setting [6]), 31 nM.

Consider “(1-(2-((2-(1-(Cyclopropylsulfonyl)-1H-pyrazol-4-yl)pyrimidin-4-yl)amino)-5-((5-((3,3-difluoroazetidin-1-yl)methyl)-1-(2,2-difluoroethyl)-1H-pyrrol-3-yl)ethynyl)pyridin-4-yl)-4-methylpiperidin-4-yl)methanol [Example 248]”, for which the IC50 on EGFR Del19/T790M/C797S (ATP at Km, read-out: IC50 Del19/T790M/C797S (nM), Km ATP) turned out to be 8.3 nM; on EGFR Del19/T790M/C797S (read-out: IC50 Del19/T790M/C797S (nM), 100 μM ATP), 13.8 nM; at EGFR L858R/C797S (ATP at Km, read-out: IC50 L858R/C797S (nM), Km ATP) it was 16.6 nM; on EGFR L858R/C797S (read-out: IC50 L858R/C797S (nM), 100 μM ATP), 39.4 nM; at EGFR wildtype (WT) (ATP at Km, read-out: IC50 WT (nM), Km ATP) it was 30.1 nM; on EGFR wildtype (WT) (read-out: IC50 WT (nM), 100 μM ATP), 6600 nM. In addition, the IC50 worked out at 11.4 nM on EGFR L858R/T790M/C797S (read-out: IC50 L858R/T790M/C797S (nM), 100 μM ATP); 9.9 nM on EGFR Del19/C797S (ATP at Km, read-out: IC50 Del19/C797S (nM), Km ATP); 8.6 nM on EGFR Del19/C797S (read-out: IC50 Del19/C797S (nM), 100 μM ATP).
